Experimental data taken from patent US4667032A, “Phenothiazone derivatives and analogs” (Merck Frosst Canada, Inc., priority 1985, dated 1987).
In brackets after ≈: the same amount, converted by molar mass.

Legend:
5-Lipoxygenase = biological target: T1, 5-Lipoxygenase (Rattus norvegicus, UniProt P12527); assay: RBL-1 5-Lipoxygenase; format: biochemical; conditions: for IC50: Table 4, first part
T1 construct: Rat basophilic leukemia (RBL-1) cells were sonicated and centrifuged at 125000 xg; endogenous in cells; host or cells: RBL-1 (rat basophilic leukemia) cells, 125000 xg supernatant of sonicate
T1 sequence (P12527 1-673): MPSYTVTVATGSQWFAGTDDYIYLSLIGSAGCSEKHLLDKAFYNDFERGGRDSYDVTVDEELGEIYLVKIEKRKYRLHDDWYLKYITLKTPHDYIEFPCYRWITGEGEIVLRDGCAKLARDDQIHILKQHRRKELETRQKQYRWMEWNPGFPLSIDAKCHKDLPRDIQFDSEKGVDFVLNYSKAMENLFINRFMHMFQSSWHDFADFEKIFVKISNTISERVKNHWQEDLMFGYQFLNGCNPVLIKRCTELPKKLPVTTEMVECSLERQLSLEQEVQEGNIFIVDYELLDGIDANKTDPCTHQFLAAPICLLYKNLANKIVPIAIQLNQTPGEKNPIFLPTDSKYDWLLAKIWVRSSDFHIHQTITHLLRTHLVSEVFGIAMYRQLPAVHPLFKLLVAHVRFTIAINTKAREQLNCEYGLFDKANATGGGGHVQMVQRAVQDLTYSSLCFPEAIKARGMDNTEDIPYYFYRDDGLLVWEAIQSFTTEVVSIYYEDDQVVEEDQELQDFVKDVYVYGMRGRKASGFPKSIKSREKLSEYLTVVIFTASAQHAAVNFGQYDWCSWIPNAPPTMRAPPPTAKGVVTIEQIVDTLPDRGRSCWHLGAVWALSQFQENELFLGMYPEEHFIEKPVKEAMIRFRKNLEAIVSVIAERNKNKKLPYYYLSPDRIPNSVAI
Protocol: Rat basophilic leukemia (RBL-1) cells were sonicated and centrifuged at 125000 xg. The resulting supernatant fraction was incubated with arachidonic acid (labelled with ^14 C) to convert a portion of it to ^14 C-5(S)-hydroxyicosatetraenoic acid (5-HETE). Compounds being evaluated as inhibitors of 5-Lipoxygenase were added prior to the addition of arachidonic acid. 5-HETE was isolated by extraction and paper chromatography, and quantitated by determining the amount of radioactivity (cpm) associated with 5-HETE.
Reference: Egan, R. W., Tischler, A. M. Baptista, E. H., Ham, E. A., Soderman, D. D., and Gale, P. H., Advances in Prostaglandin, Thromboxane and Leukotriene Research 11 151 (1983), (Samuelson, B., Ramwell, P. W., and Paoletti, R. (eds.), Raven Press, N.Y.

[1] = system: Mouse peritoneal macrophages; assay: Mouse Macrophage Assay (leukotriene C4 / PGE2 / 6-keto PGF1α formation, zymosan stimulated); format: cell-based; conditions: Table 4, first part
Protocol: Mouse peritoneal macrophages were treated sequentially with arachidonic acid (labelled with tritium); the compound being evaluated as an inhibitor, and a stimulator (zymosan). Metabolites derived from arachidonic acid PGE2 6-keto PH-F1α and leukotriene C4) were separated from the incubation medium by extraction and chromatography, and then quantitated by determining the amount of radioactivity (cpm) associated with each of them. […] (This protocol is identical to that described in the reference except that the radioactivity herein associated with the LTC4 was determined by counting an aliquot of the final aqueous solution directly rather than chromatographing it first).
Reference: Humes, J. L. et al., J. Biol. Chem. 257, 1591-4, (1982).

[2] = system: tracheal chain of sensitized guinea pigs; assay: Antigen Challenge 'in vitro' Assay (egg albumin contraction of sensitized guinea pig tracheal chain)
Protocol: Male guinea pigs weighing 300-350 g were sensitized by injecting (I.P.) 0.5 ml of a suspension containing 0.4 mg of egg albumin (Ovalbumin, Grade V, Sigma Chemical Co.) and 4.0 g aluminum hydroxide in 19.6 ml of saline. Two weeks were permitted for sensitization to occur.
Three sensitized guinea pigs were stunned and exsanguinated. The tracheas were removed, freed of adhering tissue and divided longitudinally by cutting through the cartilaginous tissue directly opposite the muscle insertion. Each opened trachea was then transected between every second cartilage. Four of the cut sections were tied together, end to end, in a series with No. 7 silk thread ensuring that the tracheal muscles were all in the same vertical plane. Thus, each chain consisted of tissue from three different animals.
The chain so formed was then suspended under 1 g of tension (by silk ties at each end) in a 20 ml organ bath containing 10 ml of modified* Krebs-Henseleit buffer solution gassed with 95% O2 and 5% CO2 at 37° C. Mepyramine (0.55 μg/ml) and indomethacin (2.67 μg/ml) were added to the buffer to avoid the contribution of histamine receptors and cyclooxygenase products to the contraction. To record responses one end of the tracheal chain was attached to a Gould-Statham UC-2 force displacement transducer which was connected to a Beckman Type R-dynograph.The preparations were allowed to equilibrate for one hour during which time the tissues were automatically washed (10 ml volume displacement) every 6 minutes.
After the equilibration period the tissues were primed with methacholine (3 μg/ml; 1.5×10^-5 M), washed and allowed to recover to baseline. The tissues were treated again with a second dose of methacholine, washed, allowed to return to baseline and washed for an additional hour.
Two chains were used as a control. These were incubated in a concentration of egg albumin sufficient to induce an average contraction of 50-80% of the methacholine response.
Each compound to be tested was added to two other baths (at a final concentration in each bath of 10 μg/ml) 15 minutes prior to challenging the fresh chains with egg albumin.
The response of the challenged tissue was expressed as a percentage of the methacholine maximum. The % inhibition for each compound was then calculated. Compounds which at 10 μg/ml (final conc.) inhibited the egg albumin response by 50% or more were retested at a lower concentration.

Row | Compound | IC50 (5-Lipoxygenase) | IC50 [1] | In Vitro Antigen Challenge Test % Inhibition ([2]; 0.3 μg (μg/ml)) | In Vitro Antigen Challenge Test % Inhibition ([2]; 1 μg (μg/ml)) | In Vitro Antigen Challenge Test % Inhibition ([2]; 10 μg (μg/ml)) | inhibition at 0.05 µg/mL (5-Lipoxygenase; at 0.05 μg/ml, read-out: RBL-1, % at stated concentration)
1 | O=c1ccc2nc3ccccc3sc-2c1 [Test No. 4] | 46.9 nM | 0.1 µg/mL (≈ 0.469 µM) | 42% | 77% | 100% | 
2 | O=c1c(Cl)cc2nc3ccccc3sc-2c1Cl [Test No. 5] |  |  |  |  |  | 65%
3 | O=c1ccc2nc3ccccc3sc-2c1Cl [drawing 26] | 40.4 nM | 0.2 µg/mL (≈ 0.807 µM) |  | 44% | 100% | 
